In patent US20240002436A1, “RESPIRATORY TREATMENTS” (Hofseth Biocare ASA, priority 2020, published 2024) one finds viability and Percent apoptotic eosinophils (annexin V-positive) data, which are given here for twelve compounds.

This test relates to Allergic Human Purified Peripheral Blood Eosinophils. Briefly: Percent eosinophil apoptosis (Annexin V-FITC, flow cytometry) in allergic human purified peripheral blood eosinophils. Type of test: cell-based. The conditions noted are these: Homo sapiens, Eosinophil, 10 μg/mL test compound, IL-5 (50 pM), 18 hr incubation, assay SD +/-2.3%; for viability at 10 µg/mL: annexin Vneg, read-out: Percent live EO cells; for Percent apoptotic eosinophils (annexin V-positive) at 10 µg/mL: annexin Vpos, read-out: Percent of apoptotic EO cells. The protocol:
Percent Eosinophil Apoptosis in Allergic Human Purified Peripheral Blood Eosinophils
Aliquots were removed after 18 hr incubation, washed twice in PBS, and resuspended in binding buffer. The eosinophil cells were stained using the Annexin V-FITC Apoptosis Detection Kit I, (Sigma Aldrich) and immediately analyzed by flow cytometry. Each sample was acquired for 1 min, and the total number of eosinophils gated on a forward scatter/side scatter plot and the percentage of live cells (annexin Vneg) and apoptotic cells (annexin Vpos) was recorded.

For `CC(C)C[C@@H](C(=O)N[C@H](C(=O)N(C)[C@H](C(=O)N1C[C@@H](O)C[C@H]1C(=O)N1C(=O)C=C[C@@H]1C)C(C)C)C(C)O)N(C)C(=O)C1CCCCC1` (stereo partly drawn) [Compound 13a], the viability at 10 µg/mL amounted to 51.3% and the Percent apoptotic eosinophils (annexin V-positive) at 10 µg/mL is 44%.
For `CCCCCCCC(=O)N(C)[C@@H](CC(C)C)C(=O)N[C@H](C(=O)N(C)[C@@H](CCSC)C(=O)N1C[C@@H](O)C[C@H]1C(=O)N1C(=O)C=CC1=O)C(C)OC(C)=O` (stereo partly drawn) [Compound 19a] the same measures were 52.7% and 41.8%.
For `CCCCCCCC(=O)N(C)[C@H](C(=O)N[C@H](C(=O)N(C)[C@@H](Cc1c[nH]c2ccccc12)C(=O)N1C[C@@H](O)C[C@H]1C(=O)N1C(=O)C=CC1=O)C(C)OC(C)=O)C(C)CC` (stereo partly drawn) [Compound 20a] the same measures were 59.3% and 39.4%.
`CC/C=C\C/C=C\C/C=C\C/C=C\C/C=C\CCCC(=O)N(C)[C@@H](CC(C)C)C(=O)N[C@H](C(=O)N(C)[C@H](C(=O)N1C[C@@H](O)C[C@H]1C(=O)N1C(=O)C=CC1=O)C(C)C)C(C)O` (stereo partly drawn) [Compound 22a]: the viability at 10 µg/mL was 28.1% and the Percent apoptotic eosinophils (annexin V-positive) at 10 µg/mL was found to be 68.7%.
The corresponding values for `CCCCCCCC(=O)N(C)[C@@H](Cc1ccccc1)C(=O)N[C@H](C(=O)N(C)[C@H](C(=O)N1C[C@@H](O)C[C@H]1C(=O)N1C(=O)C=CC1=O)C(C)C)C(C)OC(C)=O` (stereo partly drawn) [Compound 18a] are 41% and 55.5%.
For `CC/C=C\C/C=C\C/C=C\C/C=C\C/C=C\CCCC(=O)N(C)[C@@H](CC(C)C)C(=O)N[C@H](C(=O)N(C)[C@H](C(=O)N1C[C@@H](O)C[C@H]1C(=O)N1C(=O)C=C[C@@H]1C)C(C)C)C(C)O` (stereo partly drawn) [Compound 14a], the viability at 10 µg/mL worked out at 26.6% and the Percent apoptotic eosinophils (annexin V-positive) at 10 µg/mL worked out at 67.1%.
The corresponding values for `CC/C=C\C/C=C\C/C=C\C/C=C\C/C=C\CCCC(=O)N(C)[C@@H](Cc1ccccc1)C(=O)N[C@H](C(=O)N(C)[C@H](C(=O)N1CCC[C@H]1C(=O)N1C(=O)C=CC1=O)C(C)C)C(C)O` (stereo partly drawn) [Compound 25a] are 22.3% and 73.1%.
For `CC/C=C\C/C=C\C/C=C\C/C=C\C/C=C\CCCC(=O)N(C)[C@@H](CC(C)C)C(=O)N[C@H](C(=O)N(C)[C@H](C(=O)N1C[C@@H](O)C[C@H]1C(=O)N1C(=O)C=CC1=O)C(C)C)C(C)OC(C)=O` (stereo partly drawn) [Compound 21a] the same measures were 38.2% and 58%.
The corresponding values for `CC/C=C\C/C=C\C/C=C\C/C=C\C/C=C\CCCC(=O)N(C)[C@@H](Cc1ccccc1)C(=O)N[C@H](C(=O)N(C)[C@H](C(=O)N1C[C@@H](O)C[C@H]1C(=O)N1C(=O)C=CC1=O)C(C)C)C(C)OC(C)=O` (stereo partly drawn) [Compound 23a] are 31.4% and 65.6%.
Turning to `CC/C=C\C/C=C\C/C=C\C/C=C\C/C=C\CCCCCC(=O)N(C)[C@@H](Cc1ccccc1)C(=O)N[C@H](C(=O)N(C)[C@H](C(=O)N1CCC[C@H]1C(=O)N1C(=O)C=CC1=O)C(C)C)C(C)O` (stereo partly drawn) [Compound 26a], the viability at 10 µg/mL is 30% and the Percent apoptotic eosinophils (annexin V-positive) at 10 µg/mL worked out at 67.3%.
For `CC/C=C\C/C=C\C/C=C\C/C=C\C/C=C\CCCC(=O)N(C)[C@@H](Cc1ccccc1)C(=O)N[C@H](C(=O)N(C)[C@H](C(=O)N1CCC[C@H]1C(=O)N1C(=O)C=CC1=O)C(C)C)C(C)OC(C)=O` (stereo partly drawn) [Compound 24a] the same measures were 33.8% and 64.9%.
On to `CC/C=C\C/C=C\C/C=C\C/C=C\C/C=C\CCCC(=O)N(C)[C@@H](CC(C)C)C(=O)N[C@H](C(=O)N(C)[C@H](C(=O)N1C[C@@H](O)C[C@H]1C(=O)N1C(=O)C=C[C@@H]1C)C(C)C)C(C)OC(C)=O` (stereo partly drawn) [Compound 27a], for which the viability at 10 µg/mL was determined as 39.1% and the Percent apoptotic eosinophils (annexin V-positive) at 10 µg/mL turned out to be 56.5%.
